Test results from patent publication US20240246964A1 (Arbutus Biopharma Corporation, priority 2021, published 2024).

Assays:
[1] = target: PD-L1 His protein / PD-1 Fc protein (Homo sapiens (Human), UniProt Q9NZQ7); assay: HTRF Assay (PD-1/PD-L1 interaction); type: binding; settings: PD-L1 His 6 nM, PD-1 Fc 6 nM
human PD-L1 = human PD-L1 (Homo sapiens (Human), UniProt Q9NZQ7); assay: T cell activation luciferase reporter cell culture system (T Cell Activation Assay); type: cell-based; settings: luciferase reporter assay; PD-L1 aAPC/CHO-K1 cells with PD-1 effector Jurkat T cells
HBV-specific T cells = assay: HBV-specific T cell reinvigoration in vitro assay using PBMCs from chronic hepatitis B patients; type: cell-based, human; settings: relative to HBV-specific peptide treatment alone, 24 hours; for Fold Change in IFN-γ Expression of HBV-specific T Cells, Mean ± SD: Mean ± SD of nine chronic hepatitis B donors
Protocol: In one aspect, this assay measures the ability of a PD-L1 inhibitor to increase HBV specific T cell activity in an infected subject, as measured by the increase in interferon-gamma expression by those T cells.
The ability of PD-L1 inhibitor compounds to reinvigorate HBV-specific T cell activity was assessed as described. PBMCs from nine chronic hepatitis B patients were obtained by Ficoll separation of fresh whole blood and frozen in liquid nitrogen as described previously (Park et al., Nature Communications, 2021; 12:1222). Frozen PBMCs were thawed and plated into 12-well plates at 2×10^6 cells/ml. PBMCs were rested overnight at 37° C. before they were stimulated with HBV-specific peptide pools and allowed to proliferate for 5 days. Expanded PBMCs were then restimulated with HBV-specific peptide pools alone or stimulated with HBV-specific peptide pools and incubated with compounds 89, 90, and 139, a negative control, or anti-PD-L1 antibody as reference. Supernatant was obtained after 24 hours and assayed for IFN-γ using the Luminex platform. Fold change increase in IFN-γ expression mediated by compound treatment relative to HBV-specific peptide treatment alone was determined (Table 3).

[2] = system: MC38 tumors expressing human PD-L1; assay: In vivo anti-tumor efficacy in humanized PD-L1 and PD-1 expressing MC38 tumor mouse model
Protocol: In one aspect, this assay measures the ability of a PD-L1 inhibitor to reduce the size of MC38 (a murine colon adenocarcinoma cell line) tumors in mice, as an indication of the PD-L1 inhibitor's ability to help treat, ameliorate, and/or prevent cancer in the subject.
In vivo anti-tumor efficacy of compounds was evaluated in mice expressing humanized PD-1 and PD-L1, in which the extracellular domains of murine PD-1 and PD-L1 were genetically replaced with the human extracellular domain counterparts (Huang et al., Scientific Reports, 2017; 7:42687). Humanized PD-1/PD-L1 (hPD-1/hPD-L1) mice were subcutaneously implanted with the colorectal cancer cell line MC38 expressing human PD-L1 and compound treatment initiated when tumor volumes reached approximately 100 mm^3. Compounds were administered via oral gavage once daily at: 30 mg/kg between study days 1 and 7; or 10 mg/kg for 28 days. The anti-PD-L1 monoclonal antibody atezolizumab was included as a positive reference control and administered via intraperitoneal injection at 0.3 mg/kg thrice weekly between study days 1 and 15. Tumor lengths and widths were measured by digital caliper and tumor volumes were calculated by the formula: […].

Chain of human PD-L1 (Q9NZQ7 19-290): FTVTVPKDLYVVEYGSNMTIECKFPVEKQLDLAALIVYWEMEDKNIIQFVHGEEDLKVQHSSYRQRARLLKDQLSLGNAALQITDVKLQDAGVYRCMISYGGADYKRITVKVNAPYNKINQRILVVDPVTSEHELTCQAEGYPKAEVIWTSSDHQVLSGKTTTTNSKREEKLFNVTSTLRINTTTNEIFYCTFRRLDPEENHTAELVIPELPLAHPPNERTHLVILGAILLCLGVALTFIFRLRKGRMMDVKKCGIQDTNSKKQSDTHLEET
Chain of PD-L1 His protein / PD-1 Fc protein (Q9NZQ7 19-238): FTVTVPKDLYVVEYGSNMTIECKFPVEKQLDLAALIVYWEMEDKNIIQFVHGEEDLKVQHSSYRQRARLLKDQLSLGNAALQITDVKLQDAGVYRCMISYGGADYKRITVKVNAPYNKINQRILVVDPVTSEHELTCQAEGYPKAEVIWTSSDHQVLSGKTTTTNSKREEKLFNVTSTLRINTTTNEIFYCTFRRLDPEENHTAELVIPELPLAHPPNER

COc1cc(-c2nccc(-c3cccc(-c4ccc(CN5CC6(CNC(=O)C6)C5)c(OC)n4)c3Cl)c2Cl)ccc1CN1CC2(CNC(=O)C2)C1 [Compound 89, 2-(4-(3-chloro-4-(2-chloro-3-(6-methoxy-5-((7-oxo-2,6-diazaspiro[3.4]octan-2-yl)methyl)pyridin-2-yl)phenyl)pyridin-2-yl)-2-methoxybenzyl)-2,6-diazaspiro[3.4]octan-7-one]
IC50 [1]: 0.5 nM
EC50 (human PD-L1): 16.5 nM
Fold Change in IFN-γ Expression of HBV-specific T Cells (HBV-specific T cells; Chronic Hepatitis B Donor 1): 2.0 Fold Change
Fold Change in IFN-γ Expression of HBV-specific T Cells (HBV-specific T cells; Chronic Hepatitis B Donor 2): 2.0 Fold Change
Fold Change in IFN-γ Expression of HBV-specific T Cells (HBV-specific T cells; Chronic Hepatitis B Donor 3): 1.5 Fold Change
Fold Change in IFN-γ Expression of HBV-specific T Cells (HBV-specific T cells; Chronic Hepatitis B Donor 4): 3.7 Fold Change
Fold Change in IFN-γ Expression of HBV-specific T Cells (HBV-specific T cells; Chronic Hepatitis B Donor 5): 1.5 Fold Change
Fold Change in IFN-γ Expression of HBV-specific T Cells (HBV-specific T cells; Chronic Hepatitis B Donor 6): 2.7 Fold Change
Fold Change in IFN-γ Expression of HBV-specific T Cells (HBV-specific T cells; Chronic Hepatitis B Donor 7): 1.3 Fold Change
Fold Change in IFN-γ Expression of HBV-specific T Cells (HBV-specific T cells; Chronic Hepatitis B Donor 8): 2.2 Fold Change
Fold Change in IFN-γ Expression of HBV-specific T Cells (HBV-specific T cells; Chronic Hepatitis B Donor 9): 1.5 Fold Change
Fold Change in IFN-γ Expression of HBV-specific T Cells, Mean ± SD (HBV-specific T cells): 2.0 ± 0.8 Fold Change
Tumor Volume (group mean) ([2]; 10 mg/kg × 28 days, oral gavage once daily, study day 2): 122 mm^3
Tumor Volume (group mean) ([2]; 10 mg/kg × 28 days, oral gavage once daily, study day 5): 170 mm^3
Tumor Volume (group mean) ([2]; 10 mg/kg × 28 days, oral gavage once daily, study day 9): 227 mm^3
Tumor Volume (group mean) ([2]; 10 mg/kg × 28 days, oral gavage once daily, study day 12): 223 mm^3
Tumor Volume (group mean) ([2]; 10 mg/kg × 28 days, oral gavage once daily, study day 16): 222 mm^3
Tumor Volume (group mean) ([2]; 10 mg/kg × 28 days, oral gavage once daily, study day 19): 252 mm^3
Tumor Volume (group mean) ([2]; 10 mg/kg × 28 days, oral gavage once daily, study day 23): 279 mm^3
Tumor Volume (group mean) ([2]; 10 mg/kg × 28 days, oral gavage once daily, study day 26): 328 mm^3
Tumor Volume (group mean) ([2]; 10 mg/kg × 28 days, oral gavage once daily, study day 28): 346 mm^3
Tumor Volume (group mean) ([2]; 10 mg/kg × 28 days, oral gavage once daily, study day −1): 105 mm^3
Tumor Volume (group mean) ([2]; 30 mg/kg × 7 days, oral gavage once daily, study day 2): 116 mm^3
Tumor Volume (group mean) ([2]; 30 mg/kg × 7 days, oral gavage once daily, study day 5): 164 mm^3
Tumor Volume (group mean) ([2]; 30 mg/kg × 7 days, oral gavage once daily, study day 9): 176 mm^3
Tumor Volume (group mean) ([2]; 30 mg/kg × 7 days, oral gavage once daily, study day 12): 212 mm^3
Tumor Volume (group mean) ([2]; 30 mg/kg × 7 days, oral gavage once daily, study day 16): 243 mm^3
Tumor Volume (group mean) ([2]; 30 mg/kg × 7 days, oral gavage once daily, study day 19): 310 mm^3
Tumor Volume (group mean) ([2]; 30 mg/kg × 7 days, oral gavage once daily, study day 23): 418 mm^3
Tumor Volume (group mean) ([2]; 30 mg/kg × 7 days, oral gavage once daily, study day 26): 564 mm^3
Tumor Volume (group mean) ([2]; 30 mg/kg × 7 days, oral gavage once daily, study day 28): 607 mm^3
Tumor Volume (group mean) ([2]; 30 mg/kg × 7 days, oral gavage once daily, study day −1): 105 mm^3

COc1cc(-c2nccc(-c3cccc(-c4ccc(CN5CC6(C5)CN(C(C)=O)C6)c(OC)n4)c3Cl)c2Cl)ccc1CN1CC2(C1)CN(C(C)=O)C2 [Compound 90, 1-(6-((6-(3-(2-(4-((6-acetyl-2,6-diazaspiro[3.3]heptan-2-yl)methyl)-3-methoxyphenyl)-3-chloropyridin-4-yl)-2-chlorophenyl)-2-methoxypyridin-3-yl)methyl)-2,6-diazaspiro[3.3]heptan-2-yl)ethan-1-one]
IC50 [1]: 0.7 nM
EC50 (human PD-L1): 58.3 nM
Fold Change in IFN-γ Expression of HBV-specific T Cells (HBV-specific T cells; Chronic Hepatitis B Donor 1): 1.7 Fold Change
Fold Change in IFN-γ Expression of HBV-specific T Cells (HBV-specific T cells; Chronic Hepatitis B Donor 2): 2.2 Fold Change
Fold Change in IFN-γ Expression of HBV-specific T Cells (HBV-specific T cells; Chronic Hepatitis B Donor 3): 1.9 Fold Change
Fold Change in IFN-γ Expression of HBV-specific T Cells (HBV-specific T cells; Chronic Hepatitis B Donor 4): 3.0 Fold Change
Fold Change in IFN-γ Expression of HBV-specific T Cells (HBV-specific T cells; Chronic Hepatitis B Donor 5): 1.2 Fold Change
Fold Change in IFN-γ Expression of HBV-specific T Cells (HBV-specific T cells; Chronic Hepatitis B Donor 6): 2.5 Fold Change
Fold Change in IFN-γ Expression of HBV-specific T Cells (HBV-specific T cells; Chronic Hepatitis B Donor 7): 1.5 Fold Change
Fold Change in IFN-γ Expression of HBV-specific T Cells (HBV-specific T cells; Chronic Hepatitis B Donor 8): 2.1 Fold Change
Fold Change in IFN-γ Expression of HBV-specific T Cells (HBV-specific T cells; Chronic Hepatitis B Donor 9): 1.2 Fold Change
Fold Change in IFN-γ Expression of HBV-specific T Cells, Mean ± SD (HBV-specific T cells): 1.9 ± 0.6 Fold Change

COc1nc(-c2ccnc(-c3cccc(NC(=O)c4ccc(CNCCO)cn4)c3C)c2Cl)ccc1CNC[C@@H]1CCC(=O)N1 [Example 771, (S)—N-(3-(3′-chloro-6-methoxy-5-((((5-oxopyrrolidin-2-yl)methyl)amino)methyl)-[2,4′-bipyridin]-2′-yl)-2-methylphenyl)-5-(((2-hydroxyethyl)amino)methyl)picolinamide]
IC50 [1]: 0.03 nM
EC50 (human PD-L1): 28.7 nM

COc1nc(-c2cccc(-c3nccc(-c4ccc(CN5CC[C@@H](O)C5)c(OC)n4)c3Cl)c2Cl)ccc1CN1CC[C@@H](O)C1 [Example 772, (R)-1-((3′-Chloro-2′-(2-chloro-3-(5-(((R)-3-hydroxypyrrolidin-1-yl)methyl)-6-methoxypyridin-2-yl)phenyl)-6-methoxy-[2,4′-bipyridin]-5-yl)methyl)pyrrolidin-3-ol]
IC50 [1]: 0.85 nM
EC50 (human PD-L1): 11.6 nM

COc1nc(-c2cccc(-c3nccc(-c4ccc(CN5CC[C@H](O)C5)c(OC)n4)c3Cl)c2Cl)ccc1CN1CC[C@H](O)C1 [Example 773, (S)-1-((3′-Chloro-2′-(2-chloro-3-(5-(((S)-3-hydroxypyrrolidin-1-yl)methyl)-6-methoxypyridin-2-yl)phenyl)-6-methoxy-[2,4′-bipyridin]-5-yl)methyl)pyrrolidin-3-ol]
IC50 [1]: 1.03 nM
EC50 (human PD-L1): 10.6 nM

COc1nc(-c2cccc(-c3nccc(-c4ccc(CNC5CCN(C(C)=O)CC5)c(OC)n4)c3Cl)c2Cl)ccc1CN1CCC(O)CC1 [Example 774, 1-(4-(((3′-Chloro-2′-(2-chloro-3-(5-((4-hydroxypiperidin-1-yl)methyl)-6-methoxypyridin-2-yl)phenyl)-6-methoxy-[2,4′-bipyridin]-5-yl)methyl)amino)piperidin-1-yl)ethan-1-one]
IC50 [1]: 1.46 nM
EC50 (human PD-L1): 13 nM

atezolizumab
Tumor Volume (group mean) ([2]; intraperitoneal 0.3 mg/kg thrice weekly, study days 1 to 15, study day 2): 122 mm^3
Tumor Volume (group mean) ([2]; intraperitoneal 0.3 mg/kg thrice weekly, study days 1 to 15, study day 5): 162 mm^3
Tumor Volume (group mean) ([2]; intraperitoneal 0.3 mg/kg thrice weekly, study days 1 to 15, study day 9): 156 mm^3
Tumor Volume (group mean) ([2]; intraperitoneal 0.3 mg/kg thrice weekly, study days 1 to 15, study day 12): 192 mm^3
Tumor Volume (group mean) ([2]; intraperitoneal 0.3 mg/kg thrice weekly, study days 1 to 15, study day 16): 242 mm^3
Tumor Volume (group mean) ([2]; intraperitoneal 0.3 mg/kg thrice weekly, study days 1 to 15, study day 19): 243 mm^3
Tumor Volume (group mean) ([2]; intraperitoneal 0.3 mg/kg thrice weekly, study days 1 to 15, study day 23): 341 mm^3
Tumor Volume (group mean) ([2]; intraperitoneal 0.3 mg/kg thrice weekly, study days 1 to 15, study day 26): 429 mm^3
Tumor Volume (group mean) ([2]; intraperitoneal 0.3 mg/kg thrice weekly, study days 1 to 15, study day 28): 472 mm^3
Tumor Volume (group mean) ([2]; intraperitoneal 0.3 mg/kg thrice weekly, study days 1 to 15, study day −1): 105 mm^3
